Here are results for four compounds from publication PMC8048639 (2021).

Assay [1] relates to poly(dAdT)2 (DNA, polymer) AT. Briefly: UV thermal melting at 260 nm. The conditions noted are these: Na+ (sodium cacodylate buffer, I=0.05 M); pH 7.0; r=[compound]/[polynucleotide]=0.1; per base.
Assay [2] relates to poly(rA)-poly(rU) (RNA, polymer) A/U. Briefly: UV thermal melting at 260 nm. The settings on record: Na+ (sodium cacodylate buffer, I=0.05 M); pH 7.0; r=[compound]/[polynucleotide]=0.1; per base.
In assay [3] the test system is poly(dAdT)2 (DNA, polymer) AT. As to the kind of experiment: fluorimetric titration, Scatchard fit. The conditions noted are these: Na+ (sodium cacodylate buffer, I=0.05 M), pH 7.0, n fixed, per base.
In assay [4] the test system is poly(dGdC)2 (DNA, polymer) GC. As to the kind of experiment: fluorimetric titration, Scatchard fit. The settings on record: Na+ (sodium cacodylate buffer, I=0.05 M), pH 7.0, n fixed, per base.
Assay [5] concerns poly(rA)-poly(rU) (RNA, polymer) A/U. As to the kind of experiment: fluorimetric titration, Scatchard fit. The conditions noted are these: Na+ (sodium cacodylate buffer, I=0.05 M), pH 7.0, per base.
The test system of assay [6] is poly(rA) (RNA, polymer) A. As to the kind of experiment: fluorimetric titration, Scatchard fit. The conditions noted are these: Na+ (sodium cacodylate buffer, I=0.05 M), pH 7.0, n fixed, per base.
Assay [7] deals with poly(rU) (RNA, polymer) U. As to the kind of experiment: fluorimetric titration, Scatchard fit. The settings on record: Na+ (sodium cacodylate buffer, I=0.05 M), pH 7.0, n fixed, per base.
Assay [8] relates to poly(dT) (DNA, polymer) T. As to the kind of experiment: fluorimetric titration, Scatchard fit. The settings on record: Na+ (sodium cacodylate buffer, I=0.05 M), pH 7.0, n fixed, per base.
Assay [9] has as its system poly(rG) (RNA, polymer) G. Briefly: fluorimetric titration, Scatchard fit. The conditions noted are these: Na+ (sodium cacodylate buffer, I=0.05 M), pH 7.0, n fixed, per base.
The subject of assay [10] is poly(dA) (DNA, polymer) A. Briefly: fluorimetric titration, Scatchard fit. The conditions noted are these: Na+ (sodium cacodylate buffer, I=0.05 M); pH 7.0; compound 5×10^-8 M; n fixed; per base.
Assay [11] has as its system poly(rC) (RNA, polymer) C. Briefly: fluorimetric titration, Scatchard fit. The settings on record: Na+ (sodium cacodylate buffer, I=0.05 M), pH 7.0, n fixed, per base.
Where [12] appears, read: compound 5×10^-8 M, apparent, lowered by competing aggregation.
Where [13] appears, read: compound 5×10^-8 M, aggregation at excess dye.

In the case of `Cc1cc(C#Cc2c3ccccc3c(C#Cc3cc(C)c(B(c4c(C)cc([N+](C)(C)C)cc4C)c4c(C)cc([N+](C)(C)C)cc4C)c(C)c3)c3ccccc23)cc(C)c1B(c1c(C)cc([N+](C)(C)C)cc1C)c1c(C)cc([N+](C)(C)C)cc1C`, the ΔT m in assay [1] was 6 ± 0.5 °C; in assay [2], 8 ± 0.5 °C. Moreover, the “log K S” value in [3] (compound 1×10^-8 M, aggregation at excess dye) is 7.7; in [4] (compound 1×10^-8 M), 7.9; in assay [5] (compound 1×10^-8 M, limit only), > 9; in assay [6], 7.8; in assay [7], 8.8; in assay [8], 7.4. The “log K S” value in [9] was found to be 8.7.
On to `Cc1cc(C#Cc2ccc(-c3ccc(C#Cc4cc(C)c(B(c5c(C)cc([N+](C)(C)C)cc5C)c5c(C)cc([N+](C)(C)C)cc5C)c(C)c4)s3)s2)cc(C)c1B(c1c(C)cc([N+](C)(C)C)cc1C)c1c(C)cc([N+](C)(C)C)cc1C`, for which the ΔT m in assay [1] is 3 ± 0.5 °C; in assay [2] it was 7 ± 0.5 °C. Further, the “log K S” value in assay [3] (setting [12]) is listed as 5.1; in assay [4] (setting [12]), 6.6; in [5] (compound 5×10^-8 M, apparent, lowered by competing aggregation, n fixed) it was 6.0; in [10], 7.6; in assay [7] (compound 5×10^-8 M) it was 7.0; in assay [8] (compound 5×10^-8 M), 7.6. In addition, the figures for the “log K S” value in assay [9] (setting [13]) and in [11] (setting [13]) were 7.1 and 7.4, respectively.
In [2], `Cc1cc(C#Cc2ccc(C#Cc3cc(C)c(B(c4c(C)cc([N+](C)(C)C)cc4C)c4c(C)cc([N+](C)(C)C)cc4C)c(C)c3)cc2)cc(C)c1B(c1c(C)cc([N+](C)(C)C)cc1C)c1c(C)cc([N+](C)(C)C)cc1C` returned a ΔT m of 9 ± 0.5 °C. The “log K S” value in assay [3] (compound 5×10^-9 M) is on record as 7.8; in assay [4], 8.4; in assay [5] (n fixed), 8.6; in [6], 8.4; in assay [7] it was 7.4; in assay [8] it was 8.5. The “log K S” value is given as 8.7 in assay [9] and 7.1 in assay [11].
In [2], `Cc1cc([N+](C)(C)C)cc(C)c1B(c1c(C)cc([N+](C)(C)C)cc1C)c1c2ccccc2c(B(c2c(C)cc([N+](C)(C)C)cc2C)c2c(C)cc([N+](C)(C)C)cc2C)c2ccccc12` gave a ΔT m of 0 ± 0.5 °C. Besides, the “log K S” value in assay [3] (compound 5×10^-8 M) is reported as 7.4; in assay [4] (compound 5×10^-8 M), 7.8; in assay [5] (compound 5×10^-8 M, n fixed), 7.9; in [6] (compound 5×10^-8 M), 7.1; in assay [7] (compound 5×10^-8 M), 7.1; in [9] (compound 5×10^-8 M), 7.3. The “log K S” value in assay [11] (compound 5×10^-8 M) was 7.2.
